Laboratory results published in patent US20250073209A1, “COVALENT TARGETING OF RhoA FOR CANCER THERAPY” (The University of Hong Kong, priority 2023, published 2025).

Legend:
FLAG-RhoA = target: T1, FLAG-RhoA (Homo sapiens, UniProt P61586); test: CL16-alkyne labeling of FLAG-RhoA in HCT116 cells (anti-FLAG IP, CuAAC, in-gel fluorescence); assay type: cell-based; conditions: after immunoprecipitation and CuAAC
T1 construct: expressed in transfected cells; host or cells: HCT116
Method: HCT116 cells transiently expressing FLAG-RhoA were pre-treated with solvent vehicle or CL16 for 2 h, followed by the incubation with CL16-alkyne in complete medium for another 2 h. The cells were then lysed and subjected to immunoprecipitation by anti-FLAG beads. The enriched proteins were reacted with rhodamine azide through copper-catalyzed azide-alkyne cycloaddition (CuAAC), boiled with sampling buffer and separated by SDS-PAGE. The protein bands were then visualized by their in-gel fluorescence or blotted for RhoA. […] HCT116 cells were pre-treated with solvent vehicle or CL16 for 2 h, followed by the incubation with CL16-alkyne in complete medium for another 2 h. The cells were then lysed, reacted with rhodamine azide through CuAAC, boiled with sampling buffer, separated by SDS-PAGE and imaged. […]
To identify protein target and any off-targets of CL16 in CRCs, a molecular probe of CL16, CL16-alkyne (FIG. 6A), was synthesized. […] The protein bands were then visualized by their in-gel fluorescence or blotted for RhoA. […] The probe-labeled proteins were installed with rhodamine through CuAAC, and visualized by their in-gel fluorescence after SDS-PAGE. A protein band with strong fluorescence was found at −22 kDa in the sample incubated with CL16-alkyne only, in line with the molecular weight of RhoA (FIG. 6C).

[1] = reported studies; cited from earlier work
Cdc42 = Cdc42 (Homo sapiens, UniProt P60953); test: Cdc42-GTP PAK-PBD pull-down in HT29 cells; assay type: cell-based; set-up: endogenous in cells; host or cells: HT29; conditions: HT29, 30 μM (working concentration for RhoA inhibition)
Text: The procedure is similar to that for RhoA-GTP assay, except that Rac1-GTP and Cdc42-GTP in CRC cells were first enriched by Rac1 Pull-Down Activation Assay Biochem Kit (Cytoskeleton #BK035) instead of using the RhoA kit. The enriched Rac1-GTP and Cdc42-GTP were then immunoblotted by Rac1/2/3 antibody (CST #2465) and Cdc42 antibody (CST #2462) respectively.
GTP loading onto RhoA is critical for the protein activation and mediating downstream signals. In view of the inhibitions of GDP-to-GTP exchange of RhoA by CL16 in vitro as discussed above, effects of CL16 on RhoA biology in colorectal cancer cells were examined. In the serum starvation-re-stimulation experiment, HCT116 cells were grown in serum-free medium with CL16, Rhosin or solvent control for 24 h, followed by stimulation with 10% FBS for 10 min. The cells were then lysed and the RhoA activity was assayed by the level of RhoA-GTP, which is the active form of RhoA. […] HT29 cells were incubated with solvent vehicle, CL16 or Rhosin in complete medium for 24 h. The cells were then washed, lysed and subjected to rhotekin pull-down for blotting RhoA-GTP, or PAK-PBD pull-down for blotting Rac1-GTP and Cdc42-GTP. Confocal fluorescence images from HCT116 and HT29 cells expressing FRET RhoA-biosensor in the serum starvation-restimulation experiment were taken.

Cdc42, sequence (P60953 whole entry): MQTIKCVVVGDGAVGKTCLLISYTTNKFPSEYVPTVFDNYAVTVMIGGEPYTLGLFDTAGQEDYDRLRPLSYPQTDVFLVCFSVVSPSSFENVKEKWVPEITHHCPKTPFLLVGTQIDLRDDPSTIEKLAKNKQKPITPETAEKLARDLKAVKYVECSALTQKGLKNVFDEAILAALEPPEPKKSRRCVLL
T1 sequence (P61586 whole entry): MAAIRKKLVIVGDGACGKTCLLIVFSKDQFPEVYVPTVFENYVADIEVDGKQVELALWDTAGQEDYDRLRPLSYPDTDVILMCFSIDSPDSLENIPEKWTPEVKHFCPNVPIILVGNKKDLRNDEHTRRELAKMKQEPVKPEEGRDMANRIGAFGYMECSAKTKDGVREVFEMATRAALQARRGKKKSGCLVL

Row | Structure (SMILES) | probe labeling of FLAG-RhoA (in-gel fluorescence) (FLAG-RhoA) | working concentration (anticancer efficacy) [1] | Cdc42 activity (Cdc42-GTP) (Cdc42)
1 | C#CCOc1cccc2oc(C3=NN(C(=O)CCl)C(c4ccco4)C3)cc12 (stereo not drawn) [CL16-alkyne] | strong fluorescence from FLAG-RhoA protein | – | –
2 | N[C@H](Cc1c[nH]c2ccccc12)C(=O)N/N=C/c1ccc2nccnc2c1 [Rhosin, reference compound] | – | ≥ 30 µM | inhibited Cdc42
